Consider two compounds from patent publication EP1094830B1, “USE OF COMPOSITION COMPRISING AT LEAST ONE SUBSTANCE WITHIN THE GROUP GnRH-ANALOGUES FOR TREATMENT OF OBSESSIVE-COMPULSIVE DISORDER (OCD)” (Läkartjänster I Västsverige AB, priority 1998, dated 2005).

Entries after “also recorded” stand apart in the source; their conditions may differ.

Assay [1] has as its system OCD-symptoms. Nature of the assay: Case study: treatment of a patient with a severe form of OCD. It is filed as in vivo, man. Here is the method: The GnRH-analogue triptorelin is available in a pharmaceutical preparation (Decapeptyl® Depot). In the use of this preparation, an injection is administered containing triptorelin embonate in a dose corresponding to 3.75 mg triptorelin. Injections with this dose are given intramuscularly. They should be repeated every fourth week from the first injection.
A detailed case study of the treatment of a patient with a severe form of OCD is disclosed in the following, as supporting evidence of the effect of the method.
A then person was referred to a psychiatric specialist clinic from another qualified psychiatrist for evaluation and treatment of a severe condition of OCD.
(§1) The situation when the patient came to the clinic was that they had sickness pension since more than ten years. They lived alone in a small apartment which they hardly ever left. Obsessions and compulsive rituals occupied most of their time. They repeated against their will meaningless strings of words silently during several hours every day. They felt they had to read the newspaper according to certain ritual patterns; if they did anything wrong, they had to start again from the beginning. Sometimes, it took them the whole day to read the newspaper. […] Among other things, they placed their books so that the covers were strictly oriented along north-south lines. Their contacts with other persons were highly restraint and mainly limited to some relatives.
The clinical diagnosis was that they suffered from a very serious form of OCD. They were also found to be intelligent without any signs of any other mental illness or personality disorder. Thus, it was a clearly defined case of OCD.
During long periods of time the patient had been treated with the drugs which presently are considered to have the best effect against OCD. In the treatment of the patient they had also been given supportive psychotherapy.
In order to overcome this, treatment with the long-acting GnRH-analogue triptorelin (Decapeptyl® Depot) was given every fourth week as deep intramuscular depot injections with a dose corresponding to 3.75 mg triptorelin in each injection.

Assay [2] relates to OCD-symptoms. The description is as above. In kind it is in vivo, man. As to conditions: earlier treatment of the same patient(s) with anti-androgenic drugs, before the GnRH-analogue. Here is the method: as §1, with “The GnRH-analogue triptorelin is available in a pharmaceutical preparation (Decapeptyl® Depot). In the use of this preparation, an injection is administered containing triptorelin embonate in a dose corresponding to 3.75 mg triptorelin. Injections with this dose are given intramuscularly. They should be repeated every fourth week from the first injection. […] A then person was referred to a psychiatric specialist clinic from another qualified psychiatrist for evaluation and treatment of a severe condition of OCD. […] The situation” for “The situation”, “some relatives. […] The clinical diagnosis was that they suffered from a very serious form of OCD. […]” for “some relatives.”

Assay [3] relates to symptoms of androgenic hyperactivity. The experiment in a line: Case study: treatment of the patient's symptoms of androgenic hyperactivity. In kind it is in vivo, man. As to conditions: same patient, before triptorelin. How it is done:
An endocrinological investigation was performed, based upon their symptoms of androgenic hyperactivity.

Assay [4] relates to obsessive-compulsive neurosis (nowadays called obsessive-compulsive disorder, OCD). To be noted: cited from earlier work.
Where [5] appears, read: after another two months (four months in all), 3.75 mg intramuscular every fourth week.

triptorelin: the “effect on OCD-symptoms” value is reported as “dramatically better” in the assay with OCD-symptoms [1] (setting [5]); “began to feel better” in the assay on OCD-symptoms [1] (after two months treatment, 3.75 mg intramuscular every fourth week); “accentuation of the patients OCD-symptoms” with OCD-symptoms [1] (initially during treatment, 3.75 mg triptorelin deep intramuscular depot injection every fourth week). The obsessive thoughts result in the assay on OCD-symptoms [1] (setting [5]) is on record as “all obsessive thoughts had disappeared”. In addition, the “recovery from very severe form of OCD” value with OCD-symptoms [1] (after three months of treatment) was “substantially recovered”.
In the case of `CC(=O)O[C@]1(C(C)=O)CC[C@H]2[C@@H]3C=C(Cl)C4=CC(=O)[C@@H]5C[C@@H]5[C@]4(C)[C@H]3CC[C@@]21C` [cyproterone acetate], the “effect on OCD” value is recorded as “without success; also recorded: without any major improvement; also recorded: without any obvious effect on their OCD” with OCD-symptoms [2] and “failed to demonstrate any effect” in assay [4] (later investigations by other researchers). The “effect on symptoms of androgenic hyperactivity” value in assay [3] is listed as “without any significant effects”. The “effect in treatment of obsessive-compulsive neurosis” value in assay [4] (a few patients, Casas et al. 1986) was “effective”.
